This assay has as its system PCA response. In words: rat Passive Cutaneous Anaphylaxis Test (PCA test). The class given is in vivo, rat (male Wistar). The settings on record: sc, subcutaneous, sodium salt. Here is the method:
The compounds prepared in the preceding examples were tested in the rat Passive Cutaneous Anaphylaxis Test (PCA test), described below. They were administered as their sodium salts either in pH 7.2 phosphate buffer (for soluble salts) or as a suspension in 1% methyl cellulose (for insoluble salts).
Male Wistar rats of 250-300 g, were injected intraperitoneally with 0.5 ml. of Bordatella pertussis vaccine (containing 4× 10^10 dead organism per ml) and subcutaneously with 0.5 ml. of an emulsion of 100 mg. of ovalbumin in 2 ml. of saline and 3 ml. of incomplete Freunds' adjuvant. Rats were bled by cardiac puncture on day 18, the blood was pooled and separated and serum stored at -20° and thawed only once before use.
0.1 ml. of each of six twofold serial dilutions of the serum in 0.9% saline were injected intradermally into separate sites on the shaved dorsal surface of 250-350 g. Male Wistar rats. 72 hours later the animals were challenged by i.v. injection of 0.3 ml. of 1% ovalbumin mixed with 0.1 ml. of a 5% solution of pontamine sky blue dye both in isotonic saline buffered with pH 7.2 Sorenson buffer (P.B.S.). The rats were killed after 20 minutes and the diameter of the blue wheals at the antibody injection sites were measured. The starting dilution of the serum was adjusted so that there was no response, after challenge, at the site of injection of the highest dilution and a maximum response at the two or three lowest dilutions.
Amounts of the compounds were administered to rats by subcutaneous injection, into the nucal region, of a solution of the compound in P.B.S. or as a suspension in 1% methyl cellulose, each amount a test group of six animals at a specified time prior to intravenous challenge with ovalbumin.
% Inhibition of P.C.A.= 100 (1 -a/b)
For those compounds having insoluble sodium salts, the salts were isolated by reaction of the free cyano compound with 2.5N sodium hydroxide and the filtered sodium salt washed free of alkali with water. The dried salts were then administered as a suspension in 1% methyl cellulose.

The mark [1] stands for this setting: 0 h, 0 mins. prior to challenge.
[2] abbreviates: 0.5 h, 30 mins. prior to challenge.
Setting [3] is: 10 min, 10 mins. prior to challenge.
[4] abbreviates: 1 h, 60 mins. prior to challenge.

Molecules are shown by their SMILES.

Usually inhibition in vivo stands for the change of the read-out against control, counted positive when it falls.

Regarding `N#CC1C(=O)c2ccccc2C1=O` [Example 1, 2-Cyano indan-1,3-dione], under setting [1], the inhibition in vivo at 25 mg/kg turned out to be 43% and the inhibition in vivo at 100 mg/kg was 64%. In addition, under setting [2], the inhibition in vivo at 25 mg/kg worked out at 8% and the inhibition in vivo at 100 mg/kg was determined as 16%.
As for `Cc1ccc2c(c1)C(=O)C(C#N)C2=O` (stereo not drawn) [Example 2, 2-Cyano-5-methyl indan-1,3-dione], under setting [1], the inhibition in vivo at 25 mg/kg was found to be 45% and the inhibition in vivo at 100 mg/kg was found to be 76%. For the same compound, under setting [2], the inhibition in vivo at 25 mg/kg stood at 15% and the inhibition in vivo at 100 mg/kg was found to be 35%.
For the compound `Cc1cc2c(cc1C)C(=O)C(C#N)C2=O` [Example 3, 2-Cyano-5,6-dimethyl indan-1,3-dione], under setting [3], the inhibition in vivo at 2.5 mg/kg was found to be 46%, the inhibition in vivo at 5 mg/kg amounted to 56%, the inhibition in vivo at 10 mg/kg worked out at 77% and the inhibition in vivo at 20 mg/kg was found to be 92%.
With `Cc1cccc2c1C(=O)C(C#N)C2=O` (stereo not drawn) [Example 4, 2-Cyano-4-methyl indan-1,3-dione], under setting [3], the inhibition in vivo at 5 mg/kg amounted to 21%, the inhibition in vivo at 10 mg/kg stood at 25%, the inhibition in vivo at 20 mg/kg came out at 75% and the inhibition in vivo at 40 mg/kg amounted to 83%.
On the same counts, the results for `COc1cccc2c1C(=O)C(C#N)C2=O` (stereo not drawn) [Example 5, 2-Cyano-4-methoxy indan-1,3-dione] are 28%, 16%, 57% and 81%.
Turning to `N#CC1C(=O)c2cc3ccccc3cc2C1=O` [Example 6, 5,6-Benzo-2-cyano indan-1,3-dione], under setting [3], the inhibition in vivo at 25 mg/kg is 88% and the inhibition in vivo at 100 mg/kg amounted to 70%. Also, under setting [2], the inhibition in vivo at 25 mg/kg was 27% and the inhibition in vivo at 100 mg/kg stood at 30%.
On to `N#CC1C(=O)c2ccc(Cl)cc2C1=O` (stereo not drawn) [Example 7, 5-Chloro-2-cyano indan-1,3-dione], for which, under setting [3], the inhibition in vivo at 10 mg/kg worked out at 33% and the inhibition in vivo at 25 mg/kg stood at 76%. Moreover, under setting [2], the inhibition in vivo at 10 mg/kg was determined as 21% and the inhibition in vivo at 25 mg/kg amounted to 15%.
In the case of `CCc1cc2c(cc1CC)C(=O)C(C#N)C2=O` [Example 8, 2-Cyano-5,6-diethyl indan-1,3-dione], under setting [3], the inhibition in vivo at 5 mg/kg was found to be 74%, the inhibition in vivo at 10 mg/kg came out at 90%, the inhibition in vivo at 20 mg/kg is 78% and the inhibition in vivo at 40 mg/kg is 64%.
Consider `N#Cc1c(O)c2ccccc2oc1=O` [Example 9, 3-Cyano-4-hydroxycoumarin], for which, under setting [1], the inhibition in vivo at 25 mg/kg worked out at 64% and the inhibition in vivo at 100 mg/kg stood at 87%. Under setting [2], the inhibition in vivo at 25 mg/kg came to 30% and the inhibition in vivo at 100 mg/kg stood at 40%.
`CCc1cc2c(O)c(C#N)c(=O)oc2cc1C` [Example 10, 3-Cyano-6-ethyl-4-hydroxy-7-methyl coumarin]: under setting [3], the inhibition in vivo at 10 mg/kg was 71% and the inhibition in vivo at 25 mg/kg came out at 67%. Also, under setting [2], the inhibition in vivo at 10 mg/kg is 24% and the inhibition in vivo at 25 mg/kg is 17%.
Regarding `Cc1cc2oc(=O)c(C#N)c(O)c2cc1C` [Example 11, 3-Cyano-6,7-dimethyl-4-hydroxycoumarin monohydrate], under setting [1], the inhibition in vivo at 25 mg/kg came out at 51% and the inhibition in vivo at 100 mg/kg came to 72%. For the same compound, under setting [2], the inhibition in vivo at 25 mg/kg is 16% and the inhibition in vivo at 100 mg/kg stood at 11%.
For the compound `CCc1cc2oc(=O)c(C#N)c(O)c2cc1CC` [Example 12, 3-Cyano-6,7-diethyl-4-hydroxy coumarin], under setting [3], the inhibition in vivo at 2.5 mg/kg is 64%, the inhibition in vivo at 5 mg/kg was determined as 72%, the inhibition in vivo at 10 mg/kg was determined as 68% and the inhibition in vivo at 20 mg/kg worked out at 93%.
Regarding `Cc1ccc2oc(=O)c(C#N)c(O)c2c1` [Example 13, 3-Cyano-4-hydroxy-6-methyl coumarin], under setting [1], the inhibition in vivo at 25 mg/kg came to 14% and the inhibition in vivo at 100 mg/kg was determined as 40%. Further, under setting [2], the inhibition in vivo at 25 mg/kg came to 21% and the inhibition in vivo at 100 mg/kg came out at 22%.
On the same counts, the results for `Cc1ccc2c(O)c(C#N)c(=O)oc2c1` [Example 14, 3-Cyano-4-hydroxy-7-methyl coumarin] are 45%, 74%, 14% and 18%.
Turning to `CCc1ccc2c(O)c(C#N)c(=O)oc2c1` [Example 15, 3-Cyano-7-ethyl-4-hydroxy coumarin], the inhibition in vivo at 25 mg/kg was 34% under setting [1] and 27% under setting [2]. Also, the inhibition in vivo at 100 mg/kg runs as follows: under setting [1], 64%; under setting [2], 17%.
Regarding `CCOc1ccc2c(O)c(C#N)c(=O)oc2c1` [Example 16, 3-Cyano-7-ethyloxy-4-hydroxy coumarin monohydrate], under setting [3], the inhibition in vivo at 5 mg/kg was found to be 59%, the inhibition in vivo at 10 mg/kg amounted to 71%, the inhibition in vivo at 20 mg/kg worked out at 86% and the inhibition in vivo at 40 mg/kg is 73%.
Turning to `N#Cc1c(O)c2cc3ccccc3cc2oc1=O` [Example 17, 3-Cyano-4-hydroxy-2-oxo-2H-naphtho[2,3-b] pyran], under setting [1], the inhibition in vivo at 25 mg/kg came out at 9% and the inhibition in vivo at 100 mg/kg was determined as 15%. Also, under setting [4], the inhibition in vivo at 25 mg/kg turned out to be 23% and the inhibition in vivo at 100 mg/kg amounted to 18%.
For `N#Cc1c(O)c2cc3c(cc2oc1=O)CCCC3` [Example 18, 3-Cyano-4-hydroxy-2-oxo-6,7,8,9-tetrahydro-2H-naphtho [2,3-b] pyran], the inhibition in vivo at 1 mg/kg (10 min, 1 mg/kg, 10 mins. prior to challenge) amounted to 2%. In addition, the inhibition in vivo at 2 mg/kg (10 min, 2 mg/kg, 10 mins. prior to challenge) was found to be 22%. The inhibition in vivo at 4 mg/kg (10 min, 4 mg/kg, 10 mins. prior to challenge) turned out to be 52%. The inhibition in vivo at 8 mg/kg (10 min, 8 mg/kg, 10 mins. prior to challenge) came out at 67%.
Turning to `Cc1cccc2c(O)c(C#N)c(=O)oc12` [Example 19, 3-Cyano-4-hydroxy-8-methylcoumarin monohydrate], under setting [1], the inhibition in vivo at 25 mg/kg amounted to 48% and the inhibition in vivo at 100 mg/kg was found to be 67%. Under setting [2], the inhibition in vivo at 25 mg/kg was determined as 23% and the inhibition in vivo at 100 mg/kg was determined as 35%.
In the same order, the values of `COc1ccc2oc(=O)c(C#N)c(O)c2c1` [Example 20, 3-Cyano-4-hydroxy-6-methyloxycoumarin] are 54%, 72%, 29% and 36%.
For the compound `Cc1ccc2c(O)c(C#N)c(=O)oc2c1C` [Example 21, 3-Cyano-7,8-dimethyl-4-hydroxycoumarin monohydrate], under setting [3], the inhibition in vivo at 2.5 mg/kg was 20%, the inhibition in vivo at 5 mg/kg turned out to be 39%, the inhibition in vivo at 10 mg/kg amounted to 65% and the inhibition in vivo at 20 mg/kg was found to be 97%.

These data come from patent US4032544A, “3-Cyano-4-hydroxy coumarin derivatives” (Beecham Group Limited, priority 1974, dated 1977).
